Experimental data as given in patent US20130035255A1, “CONTROLLED RELEASE HYBRID SYSTEMS” (priority 2010, published 2013).
Where no end group is shown, it is not given here.

Key:
[1] = molecular target: GAL4^AD-HIV integrase (1-210 a.a.) and GAL4^BD-PR^LBD-INF5 (Homo sapiens, UniProt P06401); experiment: steroid release two hybrid yeast LacZ assay (CUG fluorescence); assay type: cell-based; conditions: strain expressing integrase fused to GAL4^AD and the interacting peptide
[2] = molecular target: HIV integrase (1-210 aa) and the peptide LYETILILLFLDVDT (SEQ ID NO:7) (Human immunodeficiency virus type 1 group M subtype B, UniProt P04585, G1270S/R1274K); assay type: cell-based; conditions: yeast screening strain
[3] = molecular target: GAL^BD-PRNHR-GAL^AD (Homo sapiens, UniProt P06401); assay type: cell-based, yeast; conditions: control strain, FIG. 4
[4] = molecular target: HIV integrase (Human immunodeficiency virus type 1 group M subtype B, UniProt P04585); experiment: biochemical; assay type: binding
[5] = molecular target: T1, GAL4^AD control (pVT 702, GAL4 activation domain alone); experiment: steroid release yeast two-hybrid, LacZ reporter
T1 construct: also called pADH-GAL^AD base vector
T1 chain: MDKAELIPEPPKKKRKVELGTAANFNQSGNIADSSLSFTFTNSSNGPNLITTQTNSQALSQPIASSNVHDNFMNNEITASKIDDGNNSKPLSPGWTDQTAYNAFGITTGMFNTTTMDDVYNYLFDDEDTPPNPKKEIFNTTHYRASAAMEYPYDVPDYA

CC(=O)[C@H]1CC[C@H]2[C@@H]3CCC4=CC(=O)CC[C@]4(C)[C@H]3CC[C@]12C [progesterone]
signal (RFU) [1]: increase in signal
signal-to-background ([2]; 8 μM progesterone): ~4
expression of beta-galactosidase ([2]; FIG. 3 dose response): stimulated expression of beta-galactosidase
signal-to-background [3]: ~100

LYETILILLFLDVDT [SEQ ID NO:7, LYETILILLFLDVDT]
Kd [4]: ~5 µM

B1: GAL4^BD-PR^LBD-INF5 hybrid protein (GAL4 DNA binding domain fused to the progesterone receptor ligand binding domain and the HIV integrase inhibitory peptide … (other)
chain: MKLLSSIEQACDICRLKKLKCSKEKPKCAKCLKNNWECRYSPKTKRSPLTRAHLTEVESRLERLEQLFLLIFPREDLDMILKMDSLQDIKALLTGLFVQDNVNKDAVTDRLASVETDMPLTLRQHRISATSSSEESSNKGQRQLTVSPVLQYPALTMIQLIPPLINLLMSIEPDVIYAGHDNTKPDTSSSLLTSLNQLGERQLLSVVKWSKSLPGFRNLHIDDQITLIQYSWMSLMVFGLGWRSYKHVSGQMLYFAPDLILNEQRMKESSFYSLCLTMWQIPQEFVKLQVSQEEFLCMKVLLLLNTIPLEGLRSQTQFEEMRSSYIRELIKAIGLRQKGVVSSSQRFYQLTKLLDNLHDLVKQLHLYCLNTFIQSRALSVEFPEMMSEVIAAQLPKILAGMVKPLLFHKALYETILILLFLDVDT
notes: also called GAL4^BD-PR^LBD-IN5
binding result [5]: no binding
